Test results: a melting point compilation (Tetko et al.; mined from patent text by program, amines drawn as free bases though some values may be those of a salt)

melting point [°C] | SMILES
> 230 | CNc1cc(C)nc2c(S(=O)(=O)c3ccc(C)cc3)c(SC)nn12
93 to 94 | Clc1ccccc1-c1nc(-c2ccccn2)no1
141 to 142 | CC1(C)OC(c2ccc(S(C)(=O)=O)cc2)=C(c2cc(F)cc(F)c2)C1=O
138 to 140 | CCOC(=O)N1CCC(Nc2nc3ccccc3n2Cc2ccc(CO)o2)CC1
138 to 145 | COc1cc(NC(=O)c2cccc(CCl)c2)cc(OC)c1OC
146 to 147 | CCOC(=O)C1(C(=O)OCC)OC(=O)c2ncccc2C1(O)c1ccccc1 (stereo not given)
99 to 104 | O=C1CC(c2ccc(F)cc2)CC(=O)O1
84.5 to 85 | CCCCNC(=O)N1Cc2ccccc2CCC1=O
93 to 95 | CC#CCCn1ncc2c(OCC)c(C(=O)OCC)cnc21
252 to 253 | CCN(CC)c1ccc2cc(-c3nc(C)c(C(=O)OC)s3)c(=O)oc2c1
180 to 181 | Cc1cc(-n2cnn(Cc3ccccc3)c2=O)sc1C(=O)NCc1cccnc1
166 to 167 | CCOCc1nc2cnc3cc(-c4ccccc4)ccc3c2n1CC1CCN(C(=O)OC(C)(C)C)CC1
147 to 148 | CNC(=O)c1cccc(NC(=O)Cc2cccc(F)c2)c1
215 to 217 | COc1cc(OC)c2c(=O)[nH]c(-c3ccccn3)nc2c1
143 to 146 | Nc1cn(-c2cccnc2)nc1Br
64 to 65 | N#Cc1nccn1Cc1cccs1
250 to 255 | CC(=O)Nc1nc2c(s1)-c1nc(N3CCCC(CNC(=O)OC(C)(C)C)C3)ncc1CC2 (stereo not given)
> 200 | CC1(C)Oc2ccc(S(=O)(=O)c3ccc(O)cc3)cc2[C@@H](Oc2ccc(O)nn2)[C@]1(C)O
265 to 267 | COC(=O)c1cccc(Cn2c(=O)c(=O)[nH]c3cc([N+](=O)[O-])ccc32)c1
160 to 162 | CCOC(=O)N1CCn2c(nc(-c3ccncn3)cc2=O)C(CC)C1 (racemic)
165 to 167 | CC(=O)OCC1OC(n2c(Cl)nc3c(Cl)cc(Cl)cc32)C(OC(C)=O)C1OC(C)=O (stereo not given)
126 to 127 | CCc1c(C#N)c(-c2ccc(C#N)cc2)c(C)n1Cc1cnc(Cl)c(CO)c1
205 to 207 | CNc1nc(-c2cccc(NC(=O)c3ccc4c(c3)OCO4)c2)c2cc(OC)c(OC)cc2n1
> 250 | O=c1[nH]c2cc(C(F)(F)F)ccc2n(CCc2ncc[nH]2)c1=O

melting point [°C] | SMILES
115 to 117 | NCCc1ccc(Nc2ncc3c(n2)-c2ccccc2C(c2cccc(Br)c2)C3)cc1 (stereo not given)
170 to 172 | COC(=O)C1=C(C)NC(C#N)=C(C(=O)OC)C1c1ccccc1[N+](=O)[O-] (stereo not given)
133 to 135 | COC(C)c1nsc2ccc(-n3c(=O)cc(C(F)(F)F)n(C)c3=O)cc12 (stereo not given)
174 | CC(C)CN(C)c1cc2c(cc1C#N)NC(=O)CC(c1cccc(-n3nncc3CN3CCCC3)c1)=N2
119 to 121 | CS(=O)(=O)OC[C@@H](O)COc1ccc(C#N)cc1
140 to 142 | CCC1c2cccn2-c2ccc(F)cc2N1S(=O)(=O)c1cc(C)c(OC)c(C)c1 (stereo not given)
222 to 223 | N#Cc1ccc(Oc2ccc(C#N)cc2C#N)cc1
136 to 139 | O=C1CCN(C(=S)Nc2ccc(Cl)cc2)N1c1ccccc1
149 to 150 | OCCOCc1csc2ccccc12
133 to 137 | COc1c(CN2CCOCC2)cccc1-c1nc2c(N[C@H]3[C@@H](C(N)=O)[C@@H]4C=C[C@H]3C4)c(Cl)cnc2[nH]1
182 to 184 | CCCNC(=O)[C@H](C)C[C@H](O)[C@H](CC1CCCCC1)NC(=O)[C@H](Cc1cscn1)NC(=O)OC(C)(C)C
78 to 80 | CCn1c2ccccc2c2cc(I)ccc21
132 to 135 | Cc1cc(Oc2c(F)cc(C(F)(F)F)cc2Cl)nn1C(N)=O
186 to 187 | CCCCn1c(=O)c(NC(=O)Nc2c(C(C)C)cc(CN)cc2C(C)C)c(-c2cccc(OC)c2)c2cccnc21
73 to 74 | COC(=O)c1cc(I)ccn1
115 to 116 | CCNc1cc(C)nc(Oc2c(C)cc(C)cc2C)c1C
113 | CCC(C(=O)c1ccc(Cl)cc1)n1ncn(-c2ccc(N3CCN(c4cc(C)cc(C)n4)CC3)nc2)c1=O (stereo not given)
145 to 147 | Cn1c(COc2ccc(CC3SC(=O)NC3=O)cc2)nc2ccc(OCCc3ccc(NC(=O)Nc4ccc(C(F)(F)F)cc4)cc3)cc21 (stereo not given)
258 to 261 | O=C(c1cc2cc3[nH]c(=O)oc3cc2[nH]1)N1CCC(OCc2ccccc2)CC1
265 | N#Cc1cn2cc(Br)nc(N3CCOCC3)c2n1
87 to 88 | Cc1csc(CN(C)C(=O)C23CC4CC(CC(C4)C2)C3)c1
263 | NC(=S)C(c1ccc(Cl)cc1)c1c(Cl)cc(-n2ncc(=O)[nH]c2=O)cc1Cl (stereo not given)
68 | CC(C)(Cc1ccc(F)cc1)NC(=O)c1coc(C2C3CCC(O3)C2Cc2ccccc2CCC(=O)O)n1 (stereo not given)
50 to 53 | Clc1ccc(-n2cccn2)cc1

melting point [°C] | SMILES
93 to 95 | Cn1cc(Oc2cccc(C(F)(F)F)c2)c(=O)c(-c2cccc(C(F)(F)F)c2)c1
191 to 192 | NC(CCN(CCC(N)=NO)CCN(CCC(N)=NO)CCC(N)=NO)=NO
133 to 135 | COCc1cc(-c2ncc3[nH]c4cccc(OCc5ccccc5)c4c3c2COC)no1
140 to 142 | N#Cc1c[nH]cc1-c1cccc(F)c1
> 300 | O=c1[nH]c(-c2c[nH]c3ccccc23)nc2ccc(N3CCOCC3)cc12
170 to 171 | CCOC(=O)C1=C(C(Br)Br)Nc2ncnn2C1C (stereo not given)
108 to 109 | CNC(=O)C(=O)CCCCCCS(=O)(=O)c1ccc2ccccc2c1
90 | CC(=O)N(C#N)C1(c2ccc(OCc3ccc4ccccc4n3)cc2)CCCC1
175 to 178 | COc1ccc(CCNC(=O)C(F)(F)F)c2c1NC(=O)C2
180 to 182 | N#Cc1ccc(Nn2cnnc2)cc1-c1ccc(OCc2ccccc2)cc1
133 to 135 | COc1ccccc1-c1ccc(C(=O)N2Cc3cccn3Cc3ccccc32)cc1C
120 to 121 | O=CC(=Cc1ccccc1OCc1ccccc1)C(C=O)=Cc1ccccc1OCc1ccccc1
77 to 82 | Fc1cncc(-n2ccc(Cl)n2)c1
154 | CCC(C)(C)c1ccc(S(=O)(=O)Nc2ncnc(OCCOc3ccc(Br)cn3)c2-c2ccc(C)cc2)cc1
73 to 74 | CN(CCOc1ccc(CO)cc1)c1ncccn1
136 to 137 | Cc1oc(-c2ccccc2)nc1COc1ccc(Cn2cc(C=O)c(-c3cccs3)n2)cc1
87 to 88.5 | COc1ccc(Oc2cccc(CCN(C)CCN(O)C(N)=O)c2)cc1
255 | N#Cc1cc(N=Nc2cccc(Cl)c2)ccc1N
93 to 95 | Clc1ccc(Oc2ccccc2Oc2ncc(Br)cn2)nc1
119 to 121 | Oc1ccccc1OCC1CCN(CC(O)COc2cccc3[nH]ccc23)CC1 (stereo not given)
184 to 185 | O=C1C(=Cc2ccc([N+](=O)[O-])cc2)CCc2cc(OCCn3ccnc3)ccc21
140 to 141 | CS(=O)(=O)CC(=O)Nc1ccccc1
154 to 155 | COC(=O)C1CCCC(=C(N)c2ccc(Cl)cc2)C(=O)C1 (stereo not given)
197 to 199 | CC(C)(C)c1cc(CCc2ccccc2NC(=O)NC23CC4CC(CC(C4)C2)C3)cc(C(C)(C)C)c1O

melting point [°C] | SMILES
105 to 107 | COc1nc(C)cnc1NS(=O)(=O)c1cccnc1-c1ccc(NC(C)C)cc1
98 to 100 | CCOC(=O)Cc1ccc2c(c1)C(=O)c1ccccc1CN2
98 to 99 | CCOC(=O)c1c(C(=O)c2nc(OC)cc(OC)n2)ccnc1Br
247 to 248 | CCCC(=O)c1cnc2c(OC)cccc2c1Nc1c(C)cc(O)cc1C
102 to 110 | CS(=O)(=O)c1ccc(-c2cnn(-c3ccc(Cl)c(F)c3)c(=O)c2-c2ccc(F)cc2)cc1
208 to 211 | CCCCOc1ccc(CCNc2ncnc(CC)c2C(=O)O)cc1
164 to 166 | CC(=NC(=Nc1ccccc1)N1CCOCC1)NC(C)(C)C
128 to 131 | Cc1ccc(-c2ccc(CO)cc2)cc1
72 to 73 | OCCCc1cnoc1-c1ccc(Br)cc1
64 to 65 | NC(=O)CCCCCc1cccnc1
142 to 143 | CCC1(CC(=O)O)OCC(Cc2ccccc2)c2c1[nH]c1ccccc21 (single isomer, unassigned; (-))
94 to 95 | COc1ccc2c(c1OCc1ccccc1)CCN(C(C)=O)C2
93 to 94 | CCOC(=O)CNC(=O)c1ccc(N)cc1
97 to 105 | CCCCc1nc2c(O)ccc(CCN(C)C)c2[nH]1
267 to 269 | CCCC(=O)c1cc2c(=O)cc(C(=O)O)[nH]c2c(C)c1C
121 to 123 | COC(=O)COc1cc(C(=O)OC)nc2ccccc12
135 to 137 | CC(=O)NCC1CC1c1cccc2nc(C(F)(F)F)cn12 (stereo not given)
48 to 49 | Fc1ccc(-c2cc(CCOCc3ccccc3)cc(OCCCCCl)c2)cc1
212 to 214 | O=C1NC(=S)SC1=Cc1cccc(OCc2ccc(C(=O)c3ccccc3)cc2)c1
187 to 188 | COc1cccc2sc(-c3ccc([N+](=O)[O-])cc3Cl)nc12
160 to 164 | COc1ccc(Nc2ncnc(NCCO)n2)cc1
210 | Cn1cc(C(=O)NCC(=O)NCC2(O)CCC2)c(C(F)(F)F)n1
147 to 149 | CC(C)(C)OC(=O)NCc1ccc(-c2ccc(O)cc2)cc1
156 to 158 | COc1cc(OC)nc(NC(=O)NS(=O)(=O)c2ncccc2OCCCl)n1

SMILES | melting point [°C]
ClC1(CN2c3ccccc3Sc3ccccc32)CN2CCC1CC2 (stereo not given) | 156 to 160
CCC(=O)N(C)c1cccc(-c2ccnc3c(C(=O)c4cccs4)cnn23)c1 | 186 to 187
NCCCP(=O)(O)C1CCCCC1 | 202 to 203
COCOc1ccc(-c2ccc3c(c2)C(C)(C)CCC3(C)C)cc1-c1ccc(C(=O)O)cc1 | 137 to 140
